In PubChem BioAssay AID330 (DTP/NCI, 2004):
“And” between values parts separate entries of the source, which are not always exact repeats. Identical values can stand only once. Inconclusive results and toxic doses are left out. The calls were made as follows: active = survival T/C of 150% or more; inactive = T/C below 125% in these data.

System: P388 leukemia ip, CD2F1 mice, survival T/C
Assay: NCI In Vivo Anticancer Drug Screen. Data for tumor model P388 Leukemia (intraperitoneal) in CD2F1 (CDF1) mice
Conditions: endpoint: median survival time, higher = longer survival
Summary of the method: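 Mice carrying the transplanted tumor received test compound or vehicle. Survival was recorded in each group, and the value is the treated-group measurement divided by that of the vehicle-treated control group.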

[1] = dose: 25.0 mg/kg/injection, schedule: Q01DX009 (ip), vehicle: saline with Tween-80
[2] = dose: 50.0 mg/kg/injection, schedule: Q01DX009 (ip), vehicle: Klucel (hydroxypropylcellulose) (HPC)
[3] = dose: 50.0 mg/kg/injection, schedule: Q01DX009 (ip), vehicle: saline with Tween-80
[4] = dose: 50.0 mg/kg/injection, schedule: Q01DX009 (ip), vehicle: suspension in saline
[5] = dose: 100.0 mg/kg/injection, schedule: Q01DX009 (ip), vehicle: Klucel (hydroxypropylcellulose) (HPC)
[6] = dose: 100.0 mg/kg/injection, schedule: Q01DX009 (ip), vehicle: saline with Tween-80
[7] = dose: 100.0 mg/kg/injection, schedule: Q01DX009 (ip), vehicle: suspension in saline
[8] = dose: 200.0 mg/kg/injection, schedule: Q01DX009 (ip), vehicle: Klucel (hydroxypropylcellulose) (HPC)
[9] = dose: 200.0 mg/kg/injection, schedule: Q01DX009 (ip), vehicle: saline with Tween-80
[10] = dose: 200.0 mg/kg/injection, schedule: Q01DX009 (ip), vehicle: suspension in saline
[11] = dose: 400.0 mg/kg/injection, schedule: Q01DX009 (ip), vehicle: saline with Tween-80
[12] = dose: 50.0 mg/kg/injection, schedule: Q01DX005 (ip), vehicle: Klucel (hydroxypropylcellulose) (HPC)
[13] = dose: 100.0 mg/kg/injection, schedule: Q01DX005 (ip), vehicle: Klucel (hydroxypropylcellulose) (HPC)
[14] = dose: 60.0 mg/kg/injection, schedule: Q01DX005 (ip), vehicle: saline with Tween-80
[15] = dose: 120.0 mg/kg/injection, schedule: Q01DX005 (ip), vehicle: saline with Tween-80
[16] = dose: 240.0 mg/kg/injection, schedule: Q01DX005 (ip), vehicle: saline with Tween-80
[17] = dose: 25.0 mg/kg/injection, schedule: Q04DX002 (ip), vehicle: saline
[18] = dose: 25.0 mg/kg/injection, schedule: Q01DX009 (ip), vehicle: saline
[19] = dose: 50.0 mg/kg/injection, schedule: Q01DX009 (ip), vehicle: saline
[20] = dose: 100.0 mg/kg/injection, schedule: Q01DX009 (ip), vehicle: saline
[21] = dose: 200.0 mg/kg/injection, schedule: Q01DX009 (ip), vehicle: saline

Measured: T/C

Cc1cc(NC(=S)SCc2ccc3c(c2)OCO3)ccc1Br
inactive: dose: 25.0 mg/kg/injection, schedule: Q01DX009 (ip), vehicle: Klucel (hydroxypropylcellulose) (HPC) 102 % of control and 107 % of control | [1] 96 % of control | [2] 107 % of control and 115 % of control and 116 % of control | [3] 91 % of control | [4] 93 % of control | [5] 107 % of control and 115 % of control and 118 % of control | [6] 100 % of control | [7] 104 % of control | [8] 107 % of control | [9] 100 % of control | [10] 93 % of control

Cn1nnnc1N/N=C(\Br)c1ccccc1
inactive: [9] 104 % of control | [11] 104 % of control

COc1cccc(C)c1C(O)CC1CCCN1 (configuration not stated)
inactive: [2] 106 % of control | [5] 102 % of control

O=C(O)c1cnccc1C(=O)c1ccccc1
inactive: [12] 101 % of control | [13] 101 % of control | dose: 200.0 mg/kg/injection, schedule: Q01DX005 (ip), vehicle: Klucel (hydroxypropylcellulose) (HPC) 92 % of control

COc1ccc(C(C#N)C(=O)C(=O)Nc2ccc(Cl)cc2C)cc1OC (configuration not stated)
inactive: [14] 100 % of control | [15] 100 % of control | [16] 105 % of control

COC1OC(COS(=O)(=O)c2ccc(C)cc2)C2OC(C)(C)OC12 (configuration not stated)
inactive: [12] 95 % of control | [13] 100 % of control

O=C1C(c2ccccc2)=C(c2ccccc2)C(=O)N1CCN1CCCC1
inactive: [14] 105 % of control | [15] 110 % of control | [16] 108 % of control

ClCCCCN(CCN(CCCCCl)c1ccccc1)c1ccccc1
inactive: dose: 12.5 mg/kg/injection, schedule: Q04DX002 (ip), vehicle: saline 100 % of control | [17] 101 % of control

CC([NH-])C(=O)O.[Cu+2].[NH-]C(Cc1cnc[nH]1)C(=O)O (configuration not stated)
inactive: [18] 97 % of control

COC(=O)N1c2ccccc2SC1C#N (configuration not stated)
inactive: [14] 96 % of control | [15] 112 % of control | [16] 106 % of control

O=C1CSC2=NCCN12
inactive: [4] 101 % of control | [7] 107 % of control | [10] 115 % of control

CCOC(=O)CCCCc1cccc2ccccc12
inactive: dose: 50.0 mg/kg/injection, schedule: Q01DX009 (ip), vehicle: other 103 % of control | dose: 100.0 mg/kg/injection, schedule: Q01DX009 (ip), vehicle: other 100 % of control | dose: 200.0 mg/kg/injection, schedule: Q01DX009 (ip), vehicle: other 107 % of control

O=C1CC[C@H]2[C@@H]3N1c1ccccc1[C@@]31CCN3C/C(=C/CBr)[C@@H]2C[C@H]31
inactive: dose: 7.5 mg/kg/injection, schedule: Q01DX005 (ip), vehicle: Klucel (hydroxypropylcellulose) (HPC) 100 % of control | dose: 15.0 mg/kg/injection, schedule: Q01DX005 (ip), vehicle: Klucel (hydroxypropylcellulose) (HPC) 102 % of control

COc1ccc2c(c1)OC/C(=C\c1ccc([N+](=O)[O-])o1)C2=O
inactive: [6] 91 % of control | [9] 86 % of control | [11] 92 % of control

O=C(Nc1cccc(C(=O)Nc2ccc(S(=O)(=O)O)c3cc(S(=O)(=O)O)cc(S(=O)(=O)O)c23)c1)Nc1cccc(C(=O)Nc2cccc3c(S(=O)(=O)O)c(S(=O)(=O)O)cc(S(=O)(=O)O)c23)c1
inactive: dose: 60.0 mg/kg/injection, schedule: Q01DX005 (ip), vehicle: saline 88 % of control | dose: 120.0 mg/kg/injection, schedule: Q01DX005 (ip), vehicle: saline 99 % of control | dose: 240.0 mg/kg/injection, schedule: Q01DX005 (ip), vehicle: saline 93 % of control

O=C(CSc1nc(-c2ccccc2)c(-c2ccccc2)o1)N1CCCCC1
inactive: [19] 93 % of control | [20] 110 % of control | [21] 110 % of control

COC(=O)C(c1c(O)cc(C)oc1=O)C(C(=O)OC)c1c(O)cc(C)oc1=O (configuration not stated)
inactive: dose: 100.0 mg/kg/injection, schedule: Q04DX003 (ip), vehicle: Klucel (hydroxypropylcellulose) (HPC) 96 % of control | dose: 200.0 mg/kg/injection, schedule: Q04DX003 (ip), vehicle: Klucel (hydroxypropylcellulose) (HPC) 95 % of control | dose: 400.0 mg/kg/injection, schedule: Q04DX003 (ip), vehicle: Klucel (hydroxypropylcellulose) (HPC) 96 % of control

COc1cc(C)c(OC)c(C/C=C(\C)CC2(O)C[C@@]3(C)CCC[C@@]3(C)C(=O)C2CC(C)(C)O)c1 (some centres not stated)
inactive: dose: 5.0 mg/kg/injection, schedule: Q01DX005 (ip), vehicle: saline with Tween-80 92 % of control | dose: 10.0 mg/kg/injection, schedule: Q01DX005 (ip), vehicle: saline with Tween-80 95 % of control | dose: 20.0 mg/kg/injection, schedule: Q01DX005 (ip), vehicle: saline with Tween-80 93 % of control

O=C(C[n+]1ccc2ccccc2c1)c1ccccc1
inactive: dose: 6.25 mg/kg/injection, schedule: Q01DX009 (ip), vehicle: saline 111 % of control | dose: 12.5 mg/kg/injection, schedule: Q01DX009 (ip), vehicle: saline with Tween-80 113 % of control | dose: 12.5 mg/kg/injection, schedule: Q01DX009 (ip), vehicle: saline 108 % of control | [1] 104 % of control | [18] 98 % of control | [3] 104 % of control | [19] 110 % of control

Cc1[nH]nc2c(Cc3ccco3)n[nH]c(=O)c12
inactive: [2] 101 % of control | [5] 100 % of control | [8] 100 % of control

COc1cccc2c1C(=O)c1c(O)c3c(c(O)c1C2=O)CC(O)(C(C)=O)CC3OC1OC(C)C(O)C(N)C1O (configuration not stated)
inactive: dose: 3.13 mg/kg/injection, schedule: Q04DX003 (ip), vehicle: water 91 % of control | dose: 6.25 mg/kg/injection, schedule: Q04DX003 (ip), vehicle: water 110 % of control | dose: 12.5 mg/kg/injection, schedule: Q04DX003 (ip), vehicle: water 99 % of control | dose: 25.0 mg/kg/injection, schedule: Q04DX003 (ip), vehicle: water 100 % of control | dose: 50.0 mg/kg/injection, schedule: Q04DX003 (ip), vehicle: water 103 % of control

CN=S(=O)(OCCCCOS(=O)(=NC)c1ccc(C)cc1)c1ccc(C)cc1 (configuration not stated)
inactive: dose: 50.0 mg/kg/injection, schedule: Q04DX003 (ip), vehicle: saline with Tween-80 116 % of control

CC(=O)OC1CCC2(C)CCC3C(OC(=O)C3(C)[Se]c3ccccc3)C2C1C (configuration not stated)
inactive: dose: 100.0 mg/kg/injection, schedule: Q04DX002 (ip), vehicle: saline with Tween-80 91 % of control

N#C/C(=C/c1ccccc1)CBr
inactive: dose: 100.0 mg/kg/injection, schedule: Q01DX001 (ip), vehicle: saline with Tween-80 95 % of control

O=C(CC(=O)NO)NO
inactive: [3] 106 % of control | [19] 115 % of control | [6] 108 % of control | [20] 110 % of control | [9] 108 % of control | [21] 108 % of control

Cc1cc(N(CCO)CCO)c2ccc3ccccc3c2n1
inactive: [3] 101 % of control | [6] 108 % of control | [9] 97 % of control

O=C(NC(=NC(=NC1CCCCC1)c1ccccc1)c1ccccc1)c1ccccc1
inactive: [3] 99 % of control | [6] 92 % of control | [9] 89 % of control

CC[As](CC)SCC1OC(OC(C)=O)C(OC(C)=O)C(OC(C)=O)C1OC(C)=O (configuration not stated)
inactive: dose: 50.0 mg/kg/injection, schedule: Q01DX009 (ip), vehicle: saline + alcohol 99 % of control | [19] 110 % of control | dose: 100.0 mg/kg/injection, schedule: Q01DX009 (ip), vehicle: saline + alcohol 100 % of control | [20] 113 % of control | dose: 200.0 mg/kg/injection, schedule: Q01DX009 (ip), vehicle: saline + alcohol 109 % of control

Cc1ccc(C)c(NC(=O)Nc2ccc(C(=O)O)c(O)c2)c1
inactive: [2] 101 % of control | [5] 101 % of control | [8] 114 % of control

C=C1CC2(CC3CC(C2C)C3(C)C)OC1=O (configuration not stated)
inactive: [17] 102 % of control | dose: 50.0 mg/kg/injection, schedule: Q04DX002 (ip), vehicle: saline 100 % of control | dose: 100.0 mg/kg/injection, schedule: Q04DX002 (ip), vehicle: saline 100 % of control and 90 % of control | dose: 400.0 mg/kg/injection, schedule: Q04DX002 (ip), vehicle: saline 100 % of control
